Results published in the OligoGym collection.
HELM strings list units from the 5' end as sugar, base in round brackets, then linkage (d deoxyribose, r ribose, m 2'-O-methyl, p phosphodiester). Strings are as the collection lists them, not checked against the first reports. ss, as = sense and antisense strand; [lna] = locked nucleic acid (LNA); [hna] = hexitol nucleic acid; [fl2r] = 2'-fluoro

Conditions: siRNA
Further: test system not given here.

“RNA1{r(G)p.r(A)p.r(A)p.r(G)p.r(A)p.r(G)p.r(U)p.m(U)p.r(A)p.r(A)p.r(C)p.r(C)p.r(C)p.r(G)p.r(G)p.r(G)p.r(A)p.r(C)p.r(U)p.r(T)p.r(T)}|RNA2{r(A)p.r(G)p.r(U)p.r(C)p.r(C)p.r(C)p.r(G)p.r(G)p.r(G)p.r(U)p.m(U)p.r(A)p.r(A)p.r(C)p.r(U)p.r(C)p.r(U)p.r(U)p.r(C)p.r(T)p.r(T)}$$$RNA1{StrandType:ss}|RNA2{StrandType:as}$” showed a target mRNA knockdown of 51%.

For “RNA1{r(G)p.r(A)p.r(A)p.r(G)p.r(A)p.r(U)p.r(A)p.r(G)p.r(G)p.r(A)p.r(A)p.r(G)p.r(G)p.r(G)p.r(G)p.r(C)p.r(U)p.r(U)p.r(C)p.r(T)p.r(T)}|RNA2{r(G)p.r(A)p.r(A)p.r(G)p.[fl2r](C)p.[fl2r](C)p.[fl2r](C)p.[fl2r](C)p.[fl2r](U)p.[fl2r](U)p.[fl2r](C)p.[fl2r](C)p.[fl2r](U)p.r(A)p.[fl2r](U)p.[fl2r](C)p.[fl2r](U)p.[fl2r](U)p.[fl2r](C)p.r(T)p.r(T)}$$$RNA1{StrandType:ss}|RNA2{StrandType:as}$”, the target mRNA knockdown was 5%.

Substance “RNA1{r(G)p.r(A)p.r(A)p.r(G)p.r(G)p.r(G)p.r(G)p.r(A)p.r(A)p.r(A)p.r(U)p.m(C)p.r(U)p.r(G)p.r(U)p.r(G)p.r(G)p.r(U)p.r(U)p.r(T)p.r(T)}|RNA2{r(A)p.r(A)p.r(C)p.m(C)p.r(A)p.r(C)p.r(A)p.r(G)p.r(A)p.r(U)p.r(U)p.r(U)p.r(C)p.r(C)p.r(C)p.r(C)p.r(U)p.r(U)p.r(C)p.r(T)p.r(T)}$$$RNA1{StrandType:ss}|RNA2{StrandType:as}$” has a target mRNA knockdown of 65%.

For “RNA1{r(G)p.r(A)p.r(A)p.r(G)p.r(G)p.r(G)p.r(G)p.r(A)p.r(A)p.r(A)p.r(U)p.r(C)p.m(U)p.m(G)p.m(U)p.m(G)p.r(G)p.r(U)p.r(U)p.r(T)p.r(T)}|RNA2{r(A)p.r(A)p.r(C)p.m(C)p.m(A)p.m(C)p.m(A)p.r(G)p.r(A)p.r(U)p.r(U)p.r(U)p.r(C)p.r(C)p.r(C)p.r(C)p.r(U)p.r(U)p.r(C)p.r(T)p.r(T)}$$$RNA1{StrandType:ss}|RNA2{StrandType:as}$”, the target mRNA knockdown was 61%.

Substance “RNA1{r(G)p.r(A)p.r(C)p.[fl2r](C)p.r(A)p.r(C)p.r(G)p.r(A)p.r(A)p.r(G)p.r(A)p.r(G)p.r(U)p.[fl2r](U)p.r(A)p.r(A)p.r(C)p.r(C)p.r(C)p.r(T)p.r(T)}|RNA2{r(G)p.r(G)p.r(G)p.r(U)p.[fl2r](U)p.r(A)p.r(A)p.r(C)p.r(U)p.r(C)p.r(U)p.r(U)p.r(C)p.r(G)p.[fl2r](U)p.r(G)p.r(G)p.r(U)p.r(C)p.r(T)p.r(T)}$$$RNA1{StrandType:ss}|RNA2{StrandType:as}$” has a target mRNA knockdown of 85%.

“RNA1{r(G)p.r(A)p.r(C)p.r(A)p.r(A)p.r(G)p.r(G)p.r(G)p.r(A)p.r(A)p.r(G)p.r(G)p.r(U)p.m(U)p.r(A)p.r(G)p.r(C)p.r(C)p.r(U)p.r(T)p.r(T)}|RNA2{r(A)p.r(G)p.r(G)p.r(C)p.m(U)p.r(A)p.r(A)p.r(C)p.r(C)p.r(U)p.r(U)p.r(C)p.r(C)p.r(C)p.r(U)p.r(U)p.r(G)p.r(U)p.r(C)p.r(T)p.r(T)}$$$RNA1{StrandType:ss}|RNA2{StrandType:as}$” gave a target mRNA knockdown of 72%.

Work on “RNA1{r(G)p.r(A)p.r(C)p.r(C)p.r(A)p.r(C)p.r(G)p.r(A)p.r(A)p.r(G)p.r(A)p.r(G)p.r(U)p.[fl2r](U)p.r(A)p.r(A)p.r(C)p.r(C)p.r(C)p.r(T)p.r(T)}|RNA2{r(G)p.r(G)p.r(G)p.r(U)p.[fl2r](U)p.r(A)p.r(A)p.r(C)p.r(U)p.r(C)p.r(U)p.r(U)p.r(C)p.r(G)p.r(U)p.r(G)p.r(G)p.r(U)p.r(C)p.r(T)p.r(T)}$$$RNA1{StrandType:ss}|RNA2{StrandType:as}$” yielded a target mRNA knockdown of 82%.

Work on “RNA1{r(G)p.r(A)p.r(C)p.r(G)p.[hna](U)p.r(A)p.r(A)p.[hna](A)p.r(C)p.r(G)p.[hna](G)p.r(C)p.r(C)p.[hna](A)p.r(C)p.r(A)p.r(A)p.r(G)p.[hna](U)p.[hna](U)p.d(T)}|RNA2{[fl2r](A)p.m(C)p.[fl2r](U)p.m(U)p.[fl2r](G)p.m(U)p.[fl2r](G)p.m(G)p.[fl2r](C)p.m(C)p.[fl2r](G)p.m(U)p.[fl2r](U)p.m(U)p.[fl2r](A)p.m(C)p.[fl2r](G)p.m(U)p.[fl2r](C)p.m(G)p.[fl2r](C)}$$$RNA1{StrandType:ss}|RNA2{StrandType:as}$” yielded a target mRNA knockdown of 23.3%.

“RNA1{r(G)p.r(A)p.r(C)p.r(G)p.[hna](U)p.r(A)p.r(A)p.[hna](A)p.r(C)p.r(G)p.[hna](G)p.r(C)p.r(C)p.[hna](A)p.r(C)p.r(A)p.r(A)p.r(G)p.[hna](U)p.[hna](U)p.d(T)}|RNA2{r(A)p.[hna](C)p.r(U)p.r(U)p.r(G)p.r(U)p.r(G)p.r(G)p.r(C)p.r(C)p.r(G)p.r(U)p.r(U)p.r(U)p.r(A)p.r(C)p.r(G)p.[hna](U)p.[hna](C)p.[hna](G)p.d(T)}$$$RNA1{StrandType:ss}|RNA2{StrandType:as}$” gave a target mRNA knockdown of 23.2%.

In the case of “RNA1{r(G)p.r(A)p.r(C)p.r(G)p.[hna](U)p.r(A)p.r(A)p.[hna](A)p.r(C)p.r(G)p.[hna](G)p.r(C)p.r(C)p.[hna](A)p.r(C)p.r(A)p.r(A)p.r(G)p.[hna](U)p.[hna](U)p.d(T)}|RNA2{r(A)p.m(C)p.r(U)p.r(U)p.r(G)p.r(U)p.r(G)p.r(G)p.r(C)p.r(C)p.r(G)p.r(U)p.r(U)p.r(U)p.r(A)p.r(C)p.r(G)p.r(U)p.r(C)p.r(G)p.r(C)}$$$RNA1{StrandType:ss}|RNA2{StrandType:as}$”, the target mRNA knockdown is reported as 44.7%.

“RNA1{r(G)p.r(A)p.r(C)p.r(G)p.[hna](U)p.r(A)p.r(A)p.[hna](A)p.r(C)p.r(G)p.[hna](G)p.r(C)p.r(C)p.[hna](A)p.r(C)p.r(A)p.r(A)p.r(G)p.[hna](U)p.[hna](U)p.d(T)}|RNA2{r(A)p.r(C)p.[hna](U)p.r(U)p.r(G)p.r(U)p.r(G)p.r(G)p.r(C)p.r(C)p.r(G)p.r(U)p.r(U)p.r(U)p.r(A)p.r(C)p.r(G)p.[hna](U)p.[hna](C)p.[hna](G)p.d(T)}$$$RNA1{StrandType:ss}|RNA2{StrandType:as}$” gave a target mRNA knockdown of 51.4%.

With “RNA1{r(G)p.r(A)p.r(C)p.r(G)p.[hna](U)p.r(A)p.r(A)p.[hna](A)p.r(C)p.r(G)p.[hna](G)p.r(C)p.r(C)p.[hna](A)p.r(C)p.r(A)p.r(A)p.r(G)p.[hna](U)p.[hna](U)p.d(T)}|RNA2{r(A)p.r(C)p.r(U)p.r(U)p.r(G)p.r(U)p.r(G)p.r(G)p.r(C)p.r(C)p.r(G)p.r(U)p.r(U)p.r(U)p.r(A)p.r(C)p.r(G)p.[hna](U)p.[hna](C)p.[hna](G)p.d(T)}$$$RNA1{StrandType:ss}|RNA2{StrandType:as}$” the target mRNA knockdown was 74.2%.

“RNA1{r(G)p.r(A)p.r(C)p.r(G)p.[hna](U)p.r(A)p.r(A)p.[hna](A)p.r(C)p.r(G)p.[hna](G)p.r(C)p.r(C)p.[hna](A)p.r(C)p.r(A)p.r(A)p.r(G)p.[hna](U)p.[hna](U)p.d(T)}|RNA2{r(A)p.r(C)p.r(U)p.r(U)p.r(G)p.r(U)p.r(G)p.r(G)p.r(C)p.r(C)p.r(G)p.r(U)p.r(U)p.r(U)p.r(A)p.r(C)p.r(G)p.r(U)p.r(C)p.r(G)p.r(C)}$$$RNA1{StrandType:ss}|RNA2{StrandType:as}$” gave a target mRNA knockdown of 87.4%.

Work on “RNA1{r(G)p.r(A)p.r(C)p.r(G)p.[hna](U)p.r(A)p.r(A)p.[hna](A)p.r(C)p.r(G)p.[hna](G)p.r(C)p.r(C)p.[hna](A)p.r(C)p.r(A)p.r(A)p.r(G)p.[hna](U)p.r(U)p.d(T)}|RNA2{r(A)p.[hna](C)p.r(U)p.r(U)p.r(G)p.r(U)p.r(G)p.r(G)p.[hna](C)p.r(C)p.r(G)p.r(U)p.r(U)p.r(U)p.r(A)p.r(C)p.r(G)p.[hna](U)p.[hna](C)p.[hna](G)p.d(T)}$$$RNA1{StrandType:ss}|RNA2{StrandType:as}$” yielded a target mRNA knockdown of 0%.

With “RNA1{r(G)p.r(A)p.r(C)p.r(G)p.[hna](U)p.r(A)p.r(A)p.[hna](A)p.r(C)p.r(G)p.[hna](G)p.r(C)p.r(C)p.[hna](A)p.r(C)p.r(A)p.r(A)p.r(G)p.[hna](U)p.r(U)p.d(T)}|RNA2{r(A)p.r(C)p.[lna](T)p.r(U)p.r(G)p.[lna](T)p.r(G)p.r(G)p.r(C)p.r(C)p.r(G)p.r(U)p.r(U)p.[lna](T)p.r(A)p.r(C)p.r(G)p.[lna](T)p.r(C)p.[lna](G)p.[lna](C)}$$$RNA1{StrandType:ss}|RNA2{StrandType:as}$” the target mRNA knockdown was 7.9%.

In the case of “RNA1{r(G)p.r(A)p.r(C)p.r(G)p.[hna](U)p.r(A)p.r(A)p.[hna](A)p.r(C)p.r(G)p.[hna](G)p.r(C)p.r(C)p.[hna](A)p.r(C)p.r(A)p.r(A)p.r(G)p.[hna](U)p.r(U)p.d(T)}|RNA2{r(A)p.r(C)p.r(U)p.r(U)p.r(G)p.r(U)p.r(G)p.r(G)p.r(C)p.r(C)p.r(G)p.r(U)p.r(U)p.r(U)p.r(A)p.r(C)p.r(G)p.r(U)p.[lna](C)p.[lna](G)p.r(C)}$$$RNA1{StrandType:ss}|RNA2{StrandType:as}$”, the target mRNA knockdown is reported as 83.9%.

Substance “RNA1{r(G)p.r(A)p.r(C)p.r(G)p.[hna](U)p.r(A)p.r(A)p.[hna](A)p.r(C)p.r(G)p.[hna](G)p.r(C)p.r(C)p.[hna](A)p.r(C)p.r(A)p.r(A)p.r(G)p.r(U)p.[hna](U)p.d(T)}|RNA2{[fl2r](A)p.m(C)p.[fl2r](U)p.m(U)p.[fl2r](G)p.m(U)p.[fl2r](G)p.m(G)p.[fl2r](C)p.m(C)p.[fl2r](G)p.m(U)p.[fl2r](U)p.m(U)p.[fl2r](A)p.m(C)p.[fl2r](G)p.m(U)p.[fl2r](C)p.m(G)p.[fl2r](C)}$$$RNA1{StrandType:ss}|RNA2{StrandType:as}$” has a target mRNA knockdown of 13.2%.

“RNA1{r(G)p.r(A)p.r(C)p.r(G)p.[hna](U)p.r(A)p.r(A)p.[hna](A)p.r(C)p.r(G)p.[hna](G)p.r(C)p.r(C)p.[hna](A)p.r(C)p.r(A)p.r(A)p.r(G)p.r(U)p.[hna](U)p.d(T)}|RNA2{r(A)p.[hna](C)p.r(U)p.r(U)p.r(G)p.r(U)p.r(G)p.r(G)p.r(C)p.r(C)p.r(G)p.r(U)p.r(U)p.r(U)p.r(A)p.r(C)p.r(G)p.[hna](U)p.[hna](C)p.[hna](G)p.d(T)}$$$RNA1{StrandType:ss}|RNA2{StrandType:as}$” showed a target mRNA knockdown of 11.9%.

For “RNA1{r(G)p.r(A)p.r(C)p.r(G)p.[hna](U)p.r(A)p.r(A)p.[hna](A)p.r(C)p.r(G)p.[hna](G)p.r(C)p.r(C)p.[hna](A)p.r(C)p.r(A)p.r(A)p.r(G)p.r(U)p.[hna](U)p.d(T)}|RNA2{r(A)p.m(C)p.r(U)p.r(U)p.r(G)p.r(U)p.r(G)p.r(G)p.r(C)p.r(C)p.r(G)p.r(U)p.r(U)p.r(U)p.r(A)p.r(C)p.r(G)p.r(U)p.r(C)p.r(G)p.r(C)}$$$RNA1{StrandType:ss}|RNA2{StrandType:as}$”, the target mRNA knockdown was 38%.
